According to PubChem BioAssay AID248 (DTP/NCI, 2004):
Inconclusive results and toxic doses are left out. Rule as the data show it: active = T/C of 150% or more; inactive = T/C below 125%.

Tested on: L1210 leukemia ip in BDF1 mice, survival T/C
Assay: NCI In Vivo Anticancer Drug Screen. Data for tumor model L1210 Leukemia (intraperitoneal) in B6D2F1 (BDF1) mice
Conditions: endpoint: mean survival time, higher = longer survival
How it was run: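 Each compound was tested against a transplantable tumor grown in mice. The endpoint was survival, with treated animals benchmarked against vehicle controls as a simple ratio.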

[1] = dose: 100.0 mg/kg/injection, schedule: Q01DX001 (ip), vehicle: saline
[2] = dose: 200.0 mg/kg/injection, schedule: Q01DX001 (ip), vehicle: saline
[3] = dose: 400.0 mg/kg/injection, schedule: Q01DX001 (ip), vehicle: saline

Measured: T/C

C1CC2CC1C1OC21 (stereo not drawn)
inactive: dose: 50.0 mg/kg/injection, schedule: Q01DX001 (ip), vehicle: saline 103 % of control | [1] 100 % of control | dose: 100.0 mg/kg/injection, schedule: Q01DX009 (ip), vehicle: other 100 % of control | [2] 105 % of control | dose: 200.0 mg/kg/injection, schedule: Q01DX009 (ip), vehicle: other 101 % of control | [3] 103 % of control | dose: 400.0 mg/kg/injection, schedule: Q01DX009 (ip), vehicle: other 94 % of control

Nc1nc(N)c2c(n1)CN(Cc1ccccc1)C2
inactive: dose: 25.0 mg/kg/injection, schedule: Q01DX001 (ip), vehicle: carboxymethylcellulose (CMC) 103 % of control | dose: 50.0 mg/kg/injection, schedule: Q01DX001 (ip), vehicle: carboxymethylcellulose (CMC) 103 % of control

CCCCNC(=O)Nc1ccccc1CC
inactive: dose: 100.0 mg/kg/injection, schedule: Q01DX009 (ip), vehicle: Klucel (hydroxypropylcellulose) (HPC) 93 % of control | dose: 100.0 mg/kg/injection, schedule: Q04DX003 (ip), vehicle: Klucel (hydroxypropylcellulose) (HPC) 95 % of control | dose: 200.0 mg/kg/injection, schedule: Q01DX009 (ip), vehicle: Klucel (hydroxypropylcellulose) (HPC) 96 % of control | dose: 200.0 mg/kg/injection, schedule: Q04DX003 (ip), vehicle: Klucel (hydroxypropylcellulose) (HPC) 106 % of control | dose: 400.0 mg/kg/injection, schedule: Q01DX009 (ip), vehicle: Klucel (hydroxypropylcellulose) (HPC) 93 % of control | dose: 400.0 mg/kg/injection, schedule: Q04DX003 (ip), vehicle: Klucel (hydroxypropylcellulose) (HPC) 97 % of control

Cc1ccc(S(=O)(=O)OC2C(SCc3ccccc3)OCC(OC(=O)c3ccccc3)C2OC(=O)c2ccccc2)cc1 (stereo not drawn)
inactive: [1] 93 % of control | [2] 88 % of control | [3] 88 % of control
